Experiments:
Settings in all cases: treatment: drug + dasatinib (fixed dose, not stated); 5 days
[1] = system: UO-31; assay: GI50 of drug in presence of dasatinib; higher = less potent
Description: (§1)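 Primary HTS combination arm: 8 RCC cell lines treated with 8 doses (up to 10 uM) of each library drug plus a fixed dose of dasatinib (dose not stated) for 5 days; viability read by CellTiter-Glo and normalised to DMSO. GI50 was fitted with XLfit, AUC is the area under the dose-response curve, and minimum viability is the lowest fraction of DMSO viability across doses.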

[2] = system: SN12C; assay: as above
Description: as §1

[3] = system: ACHN; assay: as above
Description: as §1

[4] = system: 786-O; assay: as above
Description: as §1

[5] = system: CAKI-1; assay: as above
Description: as §1

[6] = system: TK-10; assay: minimum viability across doses, drug + dasatinib, relative to DMSO (fraction); higher = less growth inhibition
Description: as §1

[7] = system: UO-31; assay: as above
Description: as §1

[8] = system: SN12C; assay: as above
Description: as §1

[9] = system: ACHN; assay: as above
Description: as §1

[10] = system: 769-P; assay: as above
Description: as §1

[11] = system: 786-O; assay: as above
Description: as §1

[12] = system: CAKI-1; assay: as above
Description: as §1

[13] = system: A498; assay: as above
Description: as §1

[14] = system: TK-10; assay: AUC of dose-response viability curve, drug + dasatinib, normalised to DMSO (arbitrary (AUC of normalised viability)); higher = less growth inhibition
Description: as §1

[15] = system: UO-31; assay: as above
Description: as §1

[16] = system: SN12C; assay: as above
Description: as §1

[17] = system: ACHN; assay: as above
Description: as §1

[18] = system: 769-P; assay: as above
Description: as §1

[19] = system: 786-O; assay: as above
Description: as §1

[20] = system: CAKI-1; assay: as above
Description: as §1

[21] = system: A498; assay: as above
Description: as §1

[22] = system: TK-10; assay: GI50 of drug in presence of dasatinib; higher = less potent
Description: as §1

[23] = system: 769-P; assay: as above
Description: as §1

[24] = system: A498; assay: as above
Description: as §1

Row | GI50 of drug [3] [nM] | GI50 of drug [4] [nM] | SMILES | GI50 of drug [1] [nM] | GI50 of drug [2] [nM] | GI50 of drug [5] [nM] | minimum viability across doses [6] | minimum viability across doses [7] | minimum viability across doses [8] | minimum viability across doses [9] | minimum viability across doses [10] | minimum viability across doses [11] | minimum viability across doses [12] | minimum viability across doses [13] | AUC of dose-response viability curve [14] | AUC of dose-response viability curve [15] | AUC of dose-response viability curve [16] | AUC of dose-response viability curve [17] | AUC of dose-response viability curve [18] | AUC of dose-response viability curve [19] | AUC of dose-response viability curve [20] | AUC of dose-response viability curve [21] | GI50 of drug [22] [nM] | GI50 of drug [23] [nM] | GI50 of drug [24] [nM]
1 | 4.36 | < 3 | CO[C@H]1C[C@H]2CC[C@@H](C)[C@@](O)(O2)C(=O)C(=O)N2CCCC[C@H]2C(=O)O[C@H]([C@H](C)C[C@@H]2CC[C@H](OP(C)(C)=O)[C@H](OC)C2)CC(=O)[C@H](C)/C=C(\C)[C@@H](O)[C@@H](OC)C(=O)[C@H](C)C[C@H](C)/C=C/C=C/C=C/1C (stereo in doubt) [Deforolimus (Ridaforolimus)] + Cc1nc(Nc2ncc(C(=O)Nc3c(C)cccc3Cl)s2)cc(N2CCN(CCO)CC2)n1 [dasatinib] | 28.6 | 25.6 | 16.8 | 0.4 | 0.257 | 0.407 | 0.263 | 0.397 | 0.287 | 0.295 | 0.493 | 1.98 | 1.39 | 1.67 | 1.18 | 1.71 | 1.11 | 1.38 | 1.95 |  |  | 
2 |  | 113 | CCN(CCO)CCCOc1ccc2c(Nc3cc(CC(=O)Nc4cccc(F)c4)n[nH]3)ncnc2c1 [Barasertib (AZD1152-HQPA)] + Cc1nc(Nc2ncc(C(=O)Nc3c(C)cccc3Cl)s2)cc(N2CCN(CCO)CC2)n1 [dasatinib] | > 10000 | > 10000 | 678 | 0.685 | 0.842 | 0.628 | 0.417 | 0.346 | 0.157 | 0.402 | 0.841 | 2.65 | 3.22 | 2.41 | 1.83 | 2.09 | 1.61 | 2.04 | 3.31 | > 10000 | 1230 | > 10000
3 | < 3 | < 3 | CO[C@H]1C[C@@H]2CC[C@@H](C)[C@@](O)(O2)C(=O)C(=O)N2CCCC[C@H]2C(=O)O[C@H]([C@H](C)C[C@@H]2CC[C@@H](OCCO)[C@H](OC)C2)CC(=O)[C@H](C)/C=C(\C)[C@@H](O)[C@@H](OC)C(=O)[C@H](C)C[C@H](C)/C=C/C=C/C=C/1C [Everolimus (RAD001)] + Cc1nc(Nc2ncc(C(=O)Nc3c(C)cccc3Cl)s2)cc(N2CCN(CCO)CC2)n1 [dasatinib] | 231 | > 10000 | 117 | 0.426 | 0.396 | 0.489 | 0.225 | 0.416 | 0.253 | 0.353 | 0.645 | 1.95 | 1.79 | 1.93 | 1.06 | 1.75 | 1.06 | 1.7 | 2.43 |  |  | > 10000
4 |  | > 10000 | CCCNC(=O)Nc1ccc(Oc2ncnc3cc(OC)c(OC)cc23)cc1Cl [KRN 633] + Cc1nc(Nc2ncc(C(=O)Nc3c(C)cccc3Cl)s2)cc(N2CCN(CCO)CC2)n1 [dasatinib] | > 10000 | > 10000 | > 10000 | 0.613 | 0.889 | 0.612 | 0.421 | 0.511 | 0.468 | 0.556 | 0.847 | 2.5 | 3.62 | 2.51 | 1.76 | 2.44 | 2.06 | 2.31 | 3.47 | > 10000 | > 10000 | > 10000
5 |  | > 10000 | CN1C(=O)C(Cc2c[nH]c3ccccc23)NC1=S (configuration not stated) [Necrostatin-1] + Cc1nc(Nc2ncc(C(=O)Nc3c(C)cccc3Cl)s2)cc(N2CCN(CCO)CC2)n1 [dasatinib] | > 10000 | > 10000 | > 10000 | 0.639 | 1.06 | 0.7 | 0.492 | 0.71 | 0.628 | 0.535 | 0.963 | 2.34 | 4.58 | 2.59 | 1.92 | 2.66 | 2.48 | 2.13 | 3.71 | > 10000 | > 10000 | > 10000
6 |  | 354 | Oc1cc(O)cc(/C=C/c2ccc(O)c(O)c2)c1 [Piceatannol] + Cc1nc(Nc2ncc(C(=O)Nc3c(C)cccc3Cl)s2)cc(N2CCN(CCO)CC2)n1 [dasatinib] | > 10000 | > 10000 | 1150 | 0.653 | 1.24 | 0.603 | 0.167 | 0.498 | 0.31 | 0.135 | 0.903 | 2.59 | 5.19 | 2.46 | 1.78 | 1.97 | 1.91 | 2.07 | 3.83 | > 10000 | 9790 | > 10000
7 | < 3 | < 3 | CO[C@H]1C[C@@H]2CC[C@@H](C)[C@@](O)(O2)C(=O)C(=O)N2CCCC[C@H]2C(=O)O[C@H]([C@H](C)C[C@@H]2CC[C@@H](O)[C@H](OC)C2)CC(=O)[C@H](C)/C=C(\C)[C@@H](O)[C@@H](OC)C(=O)[C@H](C)C[C@H](C)/C=C/C=C/C=C/1C [Rapamycin (Sirolimus)] + Cc1nc(Nc2ncc(C(=O)Nc3c(C)cccc3Cl)s2)cc(N2CCN(CCO)CC2)n1 [dasatinib] | < 3 | < 3 | < 3 | 0.445 | 0.277 | 0.451 | 0.247 | 0.389 | 0.26 | 0.256 | 0.52 | 1.76 | 1.15 | 1.68 | 1.03 | 1.59 | 0.989 | 1.11 | 2.01 |  |  | 1050
